Results on 15 substances are retold here after patent US7482008B1, “Human T cell reactive feline protein (TRFP) isolated from house dust and uses therefor” (Merck Patent GmbH, priority 1989, dated 2009).

Assay [1] has as its system T cells from cat allergic patients. Briefly: T cell proliferation of TRFP-primed T cells from cat allergic patients (tritiated thymidine), Example 5 Part A. Format: cell-based, human. Conditions: for secondary T cell response of patient 131: FIG. 8. The method, then:
Peripheral blood mononuclear cells (PBMC) were purified from 60 ml of heparinized blood from cat allergic patients. PBMC were subsequently treated as described below, although in individual cases, the length of time of cultivation with IL-2 and/or IL-4 and the specific peptides used for stimulation varied.
10 ml of PBMC from patient 131 at 10^6 /ml were cultured at 37° C. for 7 days in the presence of 5 μg purified TRFP/ml RPMI-1640 supplemented with 5% pooled human AB serum. Viable cells were purified by Ficoll-Hypaque centrifugation and cultured for three weeks at 5 units recombinant human IL-2/ml and 5 units recombinant human IL-4/ml. The resting T cells were then restimulated (secondary) with 5 μg TRFP at 2×10^5/ml in the presence of irradiated (3500 Rads) autologous PBMC at a concentration of 5×10^5/ml for three days, purified by Ficoll-Hypaque centrifugation and grown in 5 units IL-2 and 5 units IL-4/ml for two weeks. For assay, 2×10^4 resting secondary T cells were restimulated (tertiary) in the presence of 5×10^4 irradiated (3500 Rads) autologous PBMC or 2×10^4 transformed B cells (20,000 Rads) with various concentrations of allergens or their fragments in a volume of 200 microliters in a 96-well round bottom assay plates for 3 days. Each well then received 1 μCurie tritiated (methyl) thymidine for 16 hours. The counts incorporated were collected onto glass fiber filters and processed for liquid scintillation counting.
Antigens used: T cell reactive feline protein (TRFP), Hollister-Stier cat epithelium skin test reagent (CST), IPC ragweed pollen extract (pollen), and synthetic peptides derived from TRFP protein sequence (See FIGS. 6 and 7). Positive T cell proliferation is for these experiments was considered to be greater than 2.5 times the media control (T cells and antigen presenting cells alone).
Alternatively, PBMC were treated as follows: The primary stimulated cells were cultured in IL-2/IL-4 for two weeks. The resting T cells derived from this culture were tested in a secondary assay with some, but not all, of the above allergens. […] This type of epitope analysis has allowed the definition of T cell epitopes present in TRFP.

The test system of assay [2] is T cells from cat-allergic patients. Briefly: Secondary proliferation assay of T cells primed with TRFP, peptide YXZ or peptide YZX. Format: cell-based, human. As to the method:
The human cat allergic T cell response to peptides produced as above was examined. […] Peptide YZX was cleaved with thrombin as described in Example 25. Viable cells were then purified by Ficoll-Hypaque centrifugation and cultured for 2 additional weeks in RPMI-1640/5% AB serum containing 5 units recombinant human IL-2/ml and 5 units recombinant human IL-4/ml. The resting T cells were then tested in a secondary proliferation assay using a 96 well microtiter plate to assess T cell responses to various TRFP proteins or peptides (TRFP antigens). For assay, 2×10^4 resting T cells were cultured for 3 days at 37° C. in the presence of 2×10^4 autologous Epstein-Barr virus transformed B cells (25,000 Rads) as antigen presenting cells with various concentrations of antigen in 200 μl per well. Each well then received 1 μCi tritiated thymidine for 16 hours. The counts incorporated were collected onto glass fiber filters and processed for liquid scintillation counting. The stimulation indices for responses to each antigen were then calculated as the maximum CPM in response to antigen divided by the medium control CPM. A stimulation index of 2.5 was considered to be a positive T cell response. A summary of the results of 3 such experiments (patients 522, 519, and 386 is shown in FIG. 35a, FIG. 35b and FIG. 35c). As compared to the experiments shown in FIGS. 35a and 35b in the experiment shown in […], Fel-1.4 (chain 1, amino acid residues 6-17) was substituted for Fel-1.2 (chain 1, amino acid residues 1-17) and Fel-33.3 (chain 2, amino acid residues 26-40) was substituted for Fel-18 (chain 2, amino acid residues 23-48) in order to more closely resemble the constituent amino acids of peptides X and Z. In addition, in this experiment one peptide derived from the Y-Z junction of peptide YZX (amino acid residues 50-55 from chain 1 of TRFP and amino acid residues 14-19 from chain 2 of TRFP) and one peptide derived from the Z-X junction of peptide YZX (amino acid residues 34-39 of chain 2 of TRFP and amino acid residues 7-12 of chain 1 of TRFP) were synthesized and tested. These junction peptides were produced in order to determine whether these areas of peptide YZX produce a non-native epitope when formed in the peptide.

The mark [3] stands for this setting: Table 2, chain #1 TRFP peptides, average SI of responding patients multiplied by percent of patients with positive response (SI >2.5).
[4] abbreviates: Table 2, chain #1 TRFP peptides, average cpm with antigen divided by cpm of T cells and APC alone, responding patients.
Where [5] appears, read: patient 386, T cells primed with YZX.
The mark [6] stands for this setting: patient 522, T cells primed with YXZ.
[7] abbreviates: Table 3, chain #2 TRFP peptides.
Where [8] appears, read: patient 522, T cells primed with native TRFP, SI 2.5 positive.

Regarding “Fel 8: TRFP chain 1 amino acids 1-30 (EICPAVKRDVDLFLTGTPDEYVEQVAQYKA; UniProt P30438 23-52, looked up, fragment)”, in assay [1], the “secondary T cell response of patient 131” value was “respond”.

Consider “Fel 14-3: TRFP chain 1 amino acids 25-36 (VAQYKALPVVLE; UniProt P30438 47-58, looked up, fragment)”, for which the PI in assay [1] (setting [3]) was 621. In assay [1] (setting [4]), the SI is 6.9.

On to “Fel 4-1: TRFP chain 1 amino acids 37-52 (NARILKNCVDAKMTEE; UniProt P30438 59-74, looked up, fragment)”, for which the PI in assay [1] (setting [3]) was found to be 822. Also, the SI in assay [1] (setting [4]) was 9.9.

On to “DVDLFLTGTPDEYVEQV [Fel 2, TRFP chain 1 amino acids 9-25]”, for which, in assay [1] (setting [3]), the PI stood at 416. The substance further showed an SI in assay [1] (setting [4]) of 7.3. Moreover, the T cell response result in assay [2] (setting [5]) and in assay [2] (setting [6]) was “respond at a similar level or better” each time.

In assay [1] (setting [7]), “Fel 16: TRFP chain 2 amino acids 1-22 (DTMRGALLVLALLVTQALGVKM)” showed a PI of 283 and an SI of 5.9.

Turning to “Fel 1-4: TRFP chain 1 amino acids 6-17 (VKRDVDLFLTGT; UniProt P30438 28-39, looked up, fragment)”, the PI in assay [1] (setting [3]) is reported as 816. The SI in assay [1] (setting [4]) came to 9.6.

For the substance “Fel 17: TRFP chain 2 amino acids 12-33 (LLVTQALGVKMAETCPIFYDVF)”, the T cell response entry in assay [2] (setting [5]) is “respond at a similar level or better”; in assay [2] (patient 519, cells primed with peptide YXZ), “positive responses”; in assay [2] (setting [6]) it was “respond at a similar level or better”; in assay [2] (setting [8]) it was “positively respond”.

“Fel 1-5: TRFP chain 1 amino acids 8-17 (RDVDLFLTGT; UniProt P30438 30-39, looked up, fragment)” came in with a PI in assay [1] (setting [3]) of 286. The substance further yielded an SI in assay [1] (setting [4]) of 5.2.

In assay [1] (setting [3]), “Fel 4-2: TRFP chain 1 amino acids 37-49 (NARILKNCVDAKM; UniProt P30438 59-71, looked up, fragment)” yielded a PI of 378. Moreover, in assay [1] (setting [4]), the SI came to 6.2.

Consider “EITPAVKRDVDLFLTGT [Fel 1, TRFP chain 1 amino acids 1-17, amino acid 3 changed to T]”, for which the “secondary T cell response of patient 131” value in assay [1] is recorded as “respond”. This substance displayed a PI in assay [1] (setting [3]) of 392. For the same substance, the SI in assay [1] (setting [4]) came out at 5.6.

In assay [1] (setting [7]), “Fel 33-1: TRFP chain 2 amino acids 26-36 (CPIFYDVFFAV)” registered a PI of 340 and an SI of 5.4.

In the case of “Fel 33-3: TRFP chain 2 amino acids 26-40 (CPIFYDVFFAVANGN)”, in assay [1] (setting [7]), the PI was 235 and the SI is recorded as 5.0.

In assay [1] (setting [7]), “Fel 33-2: TRFP chain 2 amino acids 26-38 (CPIFYDVFFAVAN)” had a PI of 210 and an SI of 4.2.

For “Fel 32-3: TRFP chain 2 amino acids 16-24 (QALGVKMAE)”, in assay [1] (setting [7]), the PI is listed as 270 and the SI was determined as 3.7.

As for “Fel 14-2: TRFP chain 1 amino acids 29-42 (KALPVVLENARILK; UniProt P30438 51-64, looked up, fragment)”, in assay [1] (setting [4]), the SI came to 4.6. Moreover, the T cell response result in assay [2] (setting [5]) is recorded as “respond at a similar level or better”; in assay [2] (patient 386, T cells primed with native TRFP), “positively respond”; in assay [2] (setting [6]), “respond at a similar level or better”; in assay [2] (setting [8]), “positively respond”.
